Structures can show the parent of a compound that is named as a salt.

This assay concerns the target T1, human HSL (Homo sapiens, UniProt Q05469).
T1 construct: generate a full length human HSL ORF with a 3′-His6 tag; His6 (C); made in house; host or cells: High 5 insect cells (baculovirus, pFast-BAC)
T1 sequence (Q05469 1-1076): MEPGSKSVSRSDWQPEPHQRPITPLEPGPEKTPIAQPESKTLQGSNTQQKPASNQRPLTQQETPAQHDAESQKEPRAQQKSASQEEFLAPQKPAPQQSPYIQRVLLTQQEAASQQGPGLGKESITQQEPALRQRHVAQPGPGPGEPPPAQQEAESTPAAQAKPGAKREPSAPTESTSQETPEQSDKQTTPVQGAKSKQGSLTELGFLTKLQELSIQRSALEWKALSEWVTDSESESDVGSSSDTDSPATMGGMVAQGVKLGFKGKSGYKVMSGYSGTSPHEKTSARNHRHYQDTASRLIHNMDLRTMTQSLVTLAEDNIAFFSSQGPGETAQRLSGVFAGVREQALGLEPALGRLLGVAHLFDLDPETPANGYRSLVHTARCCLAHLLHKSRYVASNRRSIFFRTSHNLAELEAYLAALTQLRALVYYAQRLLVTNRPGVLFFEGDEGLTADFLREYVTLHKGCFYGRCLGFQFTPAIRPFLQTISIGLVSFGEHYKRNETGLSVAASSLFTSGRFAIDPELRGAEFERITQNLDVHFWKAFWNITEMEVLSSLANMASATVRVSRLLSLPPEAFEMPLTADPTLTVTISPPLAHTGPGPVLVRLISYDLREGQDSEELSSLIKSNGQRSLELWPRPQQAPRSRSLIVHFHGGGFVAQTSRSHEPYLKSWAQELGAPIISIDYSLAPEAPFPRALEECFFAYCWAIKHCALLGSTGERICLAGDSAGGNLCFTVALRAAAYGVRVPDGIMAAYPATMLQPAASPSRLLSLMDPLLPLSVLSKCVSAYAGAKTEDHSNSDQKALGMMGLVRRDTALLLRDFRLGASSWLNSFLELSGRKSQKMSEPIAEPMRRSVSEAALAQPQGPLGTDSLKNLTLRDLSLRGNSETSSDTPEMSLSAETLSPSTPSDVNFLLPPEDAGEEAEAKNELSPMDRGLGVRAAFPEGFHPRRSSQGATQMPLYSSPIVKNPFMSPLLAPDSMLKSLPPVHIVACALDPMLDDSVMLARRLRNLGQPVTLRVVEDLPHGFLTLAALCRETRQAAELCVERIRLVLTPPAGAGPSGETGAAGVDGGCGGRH
Kind of assay: Human Hormone-Sensitive Lipase (HSL) enzyme inhibition assay (colorimetric, DMPT substrate). In kind it is biochemical. The following applies: read-out: HSL hum IC50. The gist of the method: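 Full-length human HSL carrying a C-terminal His6 tag was expressed in High 5 insect cells via baculovirus and purified on Ni-NTA. Compounds from 3-fold DMSO series were mixed with 1.5 mM DMPT substrate suspension in 100 mM MOPS pH 7.2 with 0.2 mg/ml fatty acid-free BSA, then enzyme (15 ug/ml) was added for 20 minutes at 37 °C. Released thiol was detected with DTNB plus SDS/Triton X-100 (15 minutes, room temperature) at 405 nm.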
For the compound `Cc1ccc(S(=O)(=O)N2CCC(N)(C(=O)Nc3ccc(C(C)(C)C)cc3)CC2)cc1` [Example 77, 4-Amino-1-(toluene-4-sulfonyl)-piperidine-4-carboxylic acid (4-tert-butyl-phenyl)-amide; hydrochloride], the IC50 (usually the concentration needed to halve the response being measured) was 50 nM. On to `CC(C)c1ccc(NC(=O)C2(N)CCN(C(=O)c3ccc(Cl)cc3)CC2)cc1` [Example 125, 4-Amino-1-(4-chloro-benzoyl)-piperidine-4-carboxylic acid (4-isopropyl-phenyl)-amide], for which the IC50 was 360 nM. On to `CC(C)(C)c1ccc(NC(=O)C2(O)CCN(S(=O)(=O)c3ccccc3Cl)CC2)cc1` [Example 17, 1-(2-Chloro-benzenesulfonyl)-4-hydroxy-piperidine-4-carboxylic acid (4-tert-butyl-phenyl)-amide], for which the IC50 is 60 nM.

`Cc1ccccc1CN1CCC(O)(C(=O)Nc2ccc(C(C)(C)C)cc2)CC1` [Example 46, 4-Hydroxy-1-(2-methyl-benzyl)-piperidine-4-carboxylic acid (4-tert-butyl-phenyl)-amide]: the IC50 stood at 220 nM.

`O=C(Nc1ccc(OC(F)(F)F)cc1)C1(O)CCN(S(=O)(=O)c2ccccc2Cl)CC1` [Example 10, 1-(2-Chloro-benzenesulfonyl)-4-hydroxy-piperidine-4-carboxylic acid (4-trifluoromethoxy-phenyl)-amide]: the IC50 worked out at 120 nM.

Consider `CC(C)c1ccc(NC(=O)C2(N)CCN(S(=O)(=O)c3ccccc3F)CC2)cc1` [Example 118, 4-Amino-1-(2-fluoro-benzenesulfonyl)-piperidine-4-carboxylic acid (4-isopropyl-phenyl)-amide], for which the IC50 came to 40 nM.

For the compound `CC(C)(C)c1ccc(NC(=O)C2(O)CCN(C(=O)c3ccc(F)cc3)CC2)cc1` [Example 18, 1-(4-Fluoro-benzoyl)-4-hydroxy-piperidine-4-carboxylic acid (4-tert-butyl-phenyl)-amide], the IC50 worked out at 210 nM. With `CC(C)Oc1ccc(NC(=O)C2(N)CCN(S(=O)(=O)c3ccccc3Cl)CC2)cc1` [Example 96, 4-Amino-1-(2-chloro-benzenesulfonyl)-piperidine-4-carboxylic acid (4-isopropoxy-phenyl)-amide], the IC50 is 50 nM. For `NC1(C(=O)Nc2ccc(OCC(F)(F)F)cc2)CCN(S(=O)(=O)c2ccccc2Cl)CC1` [Example 105, 4-Amino-1-(2-chloro-benzenesulfonyl)-piperidine-4-carboxylic acid [4-(2,2,2-trifluoro-ethoxy)-phenyl]-amide] the value was 110 nM; for `CNC1(C(=O)Nc2ccc(OC(F)(F)F)cc2)CCN(S(=O)(=O)c2ccc(C)cc2)CC1` [Example 160, 4-Methylamino-1-(toluene-4-sulfonyl)-piperidine-4-carboxylic acid (4-trifluoromethoxy-phenyl)-amide], 100 nM. Turning to `O=C(Nc1ccc(OC(F)(F)F)cc1)C1(O)CCN(Cc2ccccc2Cl)CC1` [Example 63, 1-(2-Chloro-benzyl)-4-hydroxy-piperidine-4-carboxylic acid (4-trifluoromethoxy-phenyl)-amide], the IC50 is 180 nM. On to `CCc1cccc(NC(=O)C2(N)CCN(S(=O)(=O)c3ccccc3Cl)CC2)c1` [Example 92, 4-Amino-1-(2-chloro-benzenesulfonyl)-piperidine-4-carboxylic acid (3-ethyl-phenyl)-amide], for which the IC50 stood at 860 nM.

For the compound `CC(C)c1ccc(NC(=O)C2(N)CCN(C(=O)c3ccccc3OC(F)(F)F)CC2)cc1` [Example 123, 4-Amino-1-(2-trifluoromethoxy-benzoyl)-piperidine-4-carboxylic acid (4-isopropyl-phenyl)-amide], the IC50 was 200 nM. Turning to `CC(C)c1ccc(NC(=O)C2(O)CCN(C(=O)CC(C)(C)C)CC2)cc1` [Example 4, 1-(3,3-Dimethyl-butyryl)-4-hydroxy-piperidine-4-carboxylic acid (4-isopropyl-phenyl)-amide], the IC50 was 720 nM. Take `CC(C)Oc1ccc(NC(=O)C2(O)CCN(S(=O)(=O)c3ccccc3Cl)CC2)cc1` [Example 13, 1-(2-Chloro-benzenesulfonyl)-4-hydroxy-piperidine-4-carboxylic acid (4-isopropoxy-phenyl)-amide]: the IC50 amounted to 190 nM. With `CC(C)(C)c1ccc(NC(=O)C2(N)CCN(C(=O)Nc3ccc(OC(F)(F)F)cc3)CC2)cc1` [Example 86, 4-Amino-piperidine-1,4-dicarboxylic acid 4-[(4-tert-butyl-phenyl)-amide]1-[(4-trifluoromethoxy-phenyl)-amide]; hydrochloride] the figure was 140 nM; with `CC(C)(C)c1ccc(NC(=O)C2(O)CCN(Cc3ccccc3)CC2)cc1` [Example 3, 1-Benzyl-4-hydroxy-piperidine-4-carboxylic acid (4-tert-butyl-phenyl)-amide], 390 nM; with `Cc1ccc(S(=O)(=O)N2CCC(O)(C(=O)Nc3ccc(OC(C)C)cc3)CC2)cc1` [Example 12, 4-Hydroxy-1-(toluene-4-sulfonyl)-piperidine-4-carboxylic acid (4-isopropoxy-phenyl)-amide], 860 nM.

As to `CC(C)(Oc1ccc(NC(=O)C2(N)CCN(S(=O)(=O)c3ccccc3Cl)CC2)cc1)C(F)(F)F` [Example 102, 4-Amino-1-(2-chloro-benzenesulfonyl)-piperidine-4-carboxylic acid [4-(2,2,2-trifluoro-1,1-dimethyl-ethoxy)-phenyl]-amide], the IC50 was determined as 180 nM.

Regarding `CC(C)(C)c1ccc(NC(=O)N2CCC(N)(C(=O)Nc3ccc(C(C)(C)C)cc3)CC2)cc1` [Example 90, 4-Amino-piperidine-1,4-dicarboxylic acid bis-[(4-tert-butyl-phenyl)-amide]; hydrochloride], the IC50 turned out to be 130 nM. With `CN(C(=O)C1(O)CCN(Cc2ccccc2Cl)CC1)c1ccc(OC(F)(F)F)cc1` [Example 71, 1-(2-Chloro-benzyl)-4-hydroxy-piperidine-4-carboxylic acid methyl-(4-trifluoromethoxy-phenyl)-amide] the figure was 40 nM; with `CCc1ccc(NC(=O)C2(N)CCN(Cc3ccccc3OC(F)F)CC2)cc1` [Example 155, 4-Amino-1-(2-difluoromethoxy-benzyl)-piperidine-4-carboxylic acid (4-ethyl-phenyl)-amide], 110 nM; with `O=C(Nc1ccc(OC(F)(F)F)cc1)C1(O)CCN(S(=O)(=O)c2ccccc2F)CC1` [Example 61, 1-(2-Fluoro-benzenesulfonyl)-4-hydroxy-piperidine-4-carboxylic acid (4-trifluoromethoxy-phenyl)-amide], 100 nM. For the compound `CC(C)(C)c1ccc(NC(=O)C2(O)CCN(C(=O)c3ccc(F)cc3F)CC2)cc1` [Example 41, 1-(2,4-Difluoro-benzoyl)-4-hydroxy-piperidine-4-carboxylic acid (4-tert-butyl-phenyl)-amide], the IC50 stood at 490 nM.

As for `CCc1ccc(NC(=O)C2(N)CCN(S(=O)(=O)c3ccc(OC)cc3)CC2)cc1` [Example 139, 4-Amino-1-(4-methoxy-benzenesulfonyl)-piperidine-4-carboxylic acid (4-ethyl-phenyl)-amide], the IC50 stood at 80 nM. As for `Cc1ccc(S(=O)(=O)N2CCC(N)(C(=O)Nc3ccc(OC(C)C)cc3)CC2)cc1` [Example 79, 4-Amino-1-(toluene-4-sulfonyl)-piperidine-4-carboxylic acid (4-isopropoxy-phenyl)-amide; hydrochloride], the IC50 came to 130 nM. Take `Cc1ccc(S(=O)(=O)N2CCC(O)(C(=O)N(C)c3ccc(OC(F)(F)F)cc3)CC2)cc1` [Example 69, 4-Hydroxy-1-(toluene-4-sulfonyl)-piperidine-4-carboxylic acid methyl-(4-trifluoromethoxy-phenyl)-amide]: the IC50 amounted to 140 nM. With `O=C(Nc1ccc(OC(F)(F)F)cc1)C1(O)CCN(Cc2ccccc2F)CC1` [Example 58, 1-(2-Fluoro-benzyl)-4-hydroxy-piperidine-4-carboxylic acid (4-trifluoromethoxy-phenyl)-amide] the figure was 190 nM.
